{"source": "paper PMC3724117", "about": "(British Journal of Pharmacology, 2013)", "key": {"[1]": {"system": "histamine-evoked Ca^2+ signals", "assay_type": "cell-based, human", "details": "for IC50: Homo sapiens"}, "[2]": {"system": "intracellular Ca^2+ stores", "assay": "Ca2+ content of the intracellular stores of human ASMC", "assay_type": "cell-based", "details": "2-APB, stores assessed with ionomycin 1 μM"}, "EP4 receptors": {"target": "EP4 receptors (Homo sapiens, UniProt P35408)", "sequence (P35408 whole entry)": "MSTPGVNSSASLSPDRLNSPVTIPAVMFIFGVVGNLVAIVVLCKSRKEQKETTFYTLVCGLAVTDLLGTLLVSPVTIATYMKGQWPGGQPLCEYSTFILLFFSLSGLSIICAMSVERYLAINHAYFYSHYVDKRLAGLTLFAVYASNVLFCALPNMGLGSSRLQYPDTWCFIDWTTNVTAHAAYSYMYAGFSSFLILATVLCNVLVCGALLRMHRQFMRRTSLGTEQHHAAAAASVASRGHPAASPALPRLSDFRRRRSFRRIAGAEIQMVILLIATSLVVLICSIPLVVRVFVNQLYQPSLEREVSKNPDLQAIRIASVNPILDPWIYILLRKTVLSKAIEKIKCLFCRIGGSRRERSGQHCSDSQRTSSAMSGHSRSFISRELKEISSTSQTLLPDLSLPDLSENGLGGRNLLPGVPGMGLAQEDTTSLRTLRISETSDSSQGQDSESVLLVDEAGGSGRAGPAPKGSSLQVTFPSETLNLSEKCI", "assay_type": "cell-based"}, "AC activity [3]": {"system": "AC activity", "assay": "cAMP accumulation in human ASMC, 3H-adenine-labelling assay", "assay_type": "cell-based", "details": "read-out: pEC50 for cAMP accumulation (converted)"}, "human ASMC": {"system": "human ASMC", "assay": "Direct effect of drug alone on [Ca2+]i in human ASMC", "assay_type": "cell-based"}, "EP2 receptors": {"target": "EP2 receptors (Homo sapiens, UniProt P43116)", "sequence (P43116 whole entry)": "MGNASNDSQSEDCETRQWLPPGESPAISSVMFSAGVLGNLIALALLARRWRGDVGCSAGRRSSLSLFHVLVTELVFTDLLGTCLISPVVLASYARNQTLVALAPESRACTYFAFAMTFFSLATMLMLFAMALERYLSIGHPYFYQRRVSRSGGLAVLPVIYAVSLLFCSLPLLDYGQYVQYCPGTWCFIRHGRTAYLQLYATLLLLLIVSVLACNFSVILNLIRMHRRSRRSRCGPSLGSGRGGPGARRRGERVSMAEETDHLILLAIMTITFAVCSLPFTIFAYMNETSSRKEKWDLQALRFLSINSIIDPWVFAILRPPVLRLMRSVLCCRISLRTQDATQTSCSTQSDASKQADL", "assay_type": "cell-based"}, "EP2 receptor": {"target": "EP2 receptor", "details": "2000, cited from earlier work; for pKD, EP2 receptor: reported affinity, ref Abramovitz et al."}, "AC activity [4]": {"system": "AC activity", "assay": "cAMP accumulation in human ASMC, HitHunter cAMP HS+ assay", "assay_type": "cell-based"}, "EP4 receptor": {"system": "EP4 receptor", "details": "cited from earlier work"}, "[5]": {"details": "read-out: [Ca2+]i, pIC50, Control (converted)"}}, "note": "Where two headings read alike, the source gives them in different places."}
{"smiles": "NCCOB(c1ccccc1)c1ccccc1", "note": "[2-APB, 2-aminoethoxydiphenyl borate]", "values": [{"measurement": "effect on Ca2+ signals evoked by histamine", "setting": "[1]; 2-APB 5 min before, histamine 3 μM or 1 mM, Ca2+-free HBS", "value": "concentration-dependent inhibition"}, {"measurement": "effect on Ca2+ content of the intracellular stores", "setting": "[2]", "value": "substantial loss"}]}
{"smiles": "CS(=O)(=O)NC(=O)CCC/C=C\\C[C@H]1C(=O)C[C@@H](O)[C@@H]1/C=C/[C@@H](O)COc1ccccc1", "note": "[Sulprostone, sulprostone]", "values": [{"measurement": "effect on histamine-evoked Ca2+ signals", "setting": "[1]; sulprostone 1 μM, histamine 3 μM", "value": "no effect"}]}
{"smiles": "CCOc1c2c(c(OCC)c3ccccc13)C(=O)N(c1ccc(CC(=O)NS(=O)(=O)c3ccccc3)cc1)C2", "note": "[GW627368X, 2-[4-(4,9-diethoxy-3-oxo-1H-benzo[f]isoindol-2-yl)phenyl]-N-phenylsulfonylacetamide]", "values": [{"measurement": "ΔpIC50 (pIC50 control − pIC50 +antagonist) of L902,688", "setting": "[1]; GW627368X 1 μM, histamine 3 μM", "value": "2.20 ± 0.28"}, {"measurement": "ΔpIC50 (pIC50 control − pIC50 +antagonist) of PGE2", "setting": "[1]; GW627368X 1 μM, histamine 3 μM", "value": "0.24 ± 0.08"}, {"measurement": "ΔpIC50 (pIC50 control − pIC50 +antagonist) of butaprost", "setting": "[1]; GW627368X 1 μM, histamine 3 μM", "value": "−0.21 ± 0.14"}, {"measurement": "Kd", "setting": "EP4 receptors", "value": 0.00631, "unit": "µM"}]}
{"smiles": "CCCCC[C@H](O)/C=C/[C@H]1[C@H](O)CC(=O)[C@@H]1C/C=C\\CCCC(=O)O", "note": "[PGE2, Prostaglandin E2]", "values": [{"measurement": "EC50", "setting": "AC activity [3]", "value": 0.214, "unit": "µM"}, {"measurement": "IC50", "setting": "[1]; [5]", "value": 0.000537, "unit": "µM"}, {"measurement": "effect on [Ca2+]i", "setting": "human ASMC; PGE2 alone (10 μM)", "value": "no effect"}]}
{"smiles": "O=C(O)CCCCCC[C@H]1C(=O)NC(=O)N1CCC(O)C1CCCCC1", "note": "(stereo partly drawn) [BW 245C, (4S)-(3-[(3R,S)-3-cyclohexyl-3-hydroxypropyl]-2,5-dioxo)-4-imidazolidineheptanoic acid]", "values": [{"measurement": "effect on histamine-evoked Ca2+ signals", "setting": "[1]; BW 245C 10 nM, histamine 3 μM", "value": "no effect"}]}
{"smiles": "CC(C)Oc1ccc2c(=O)c3cc(C(=O)O)ccc3oc2c1", "note": "[AH6809, 6-isopropoxy-9-oxoxanthene-2-carboxylic acid]", "values": [{"measurement": "ΔpIC50 (pIC50 control − pIC50 +antagonist) of L902,688", "setting": "[1]; AH6809 30 μM, histamine 3 μM", "value": "−0.01 ± 0.27"}, {"measurement": "ΔpIC50 (pIC50 control − pIC50 +antagonist) of PGE2", "setting": "[1]; AH6809 30 μM, histamine 3 μM", "value": "0.62 ± 0.13"}, {"measurement": "ΔpIC50 (pIC50 control − pIC50 +antagonist) of butaprost", "setting": "[1]; AH6809 30 μM, histamine 3 μM", "value": "1.12 ± 0.15"}, {"measurement": "Kd", "setting": "EP2 receptors", "value": 2.51, "unit": "µM"}, {"measurement": "pKD, EP2 receptor", "setting": "EP2 receptor", "value": 5.9}]}
{"smiles": "CC(C)[C@@]1(O)[C@@H](OC(=O)c2ccc[nH]2)[C@@]2(O)[C@@]3(C)C[C@]4(O)O[C@@]5([C@H](O)[C@@H](C)CC[C@]35O)[C@@]2(O)[C@@]14C", "note": "[ryanodine, Ryanodine]", "values": [{"measurement": "effect on responses to histamine", "setting": "[1]; ryanodine 100 μM, 5 min", "value": "unaffected"}]}
{"smiles": "COc1ccc2c(c1)CC[C@@H]1[C@@H]2CC[C@]2(C)[C@@H](NCCCCCCN3C(=O)C=CC3=O)CC[C@@H]12", "note": "[U73122, 1-[6-[[(17β)-3-methoxyestra-1,3,5(10)-trien-17-yl]amino]hexyl]-1H-pyrrole-2,5-dione]", "values": [{"measurement": "IC50", "setting": "[1]; read-out: pIC50 for inhibition of Ca2+ signals evoked by histamine (converted)", "value": 1.74, "unit": "µM"}]}
{"smiles": "COc1ccc([C@H]2N[C@H](C(=O)O)Cc3c2[nH]c2ccccc32)cc1CN1CCN(c2ccccc2F)CC1", "note": "[trans-Ned-19, (1R,3S)-1-[3-[[4-(2-fluorophenyl)piperazin-1-yl]methyl]-4-methoxyphenyl]-2,3,4,9-tetrahydro-1H-pyrido[3,4-b]indole-3-carboxylic acid]", "values": [{"measurement": "effect on responses to histamine", "setting": "[1]; trans-Ned-19 1 μM, 5 min", "value": "unaffected"}]}
{"smiles": "CC(C)OC(=O)CCC/C=C\\C[C@@H]1[C@@H](CC[C@@H](O)CCc2ccccc2)[C@H](O)C[C@@H]1O", "note": "[latanoprost]", "values": [{"measurement": "effect on histamine-evoked Ca2+ signals", "setting": "[1]; latanoprost 100 nM, histamine 3 μM", "value": "no effect"}]}
{"smiles": "O=C1CC[C@H](/C=C/[C@@H](O)C(F)(F)c2ccccc2)N1CCCCCCc1nn[nH]n1", "note": "[L902,688, 5-[(1E,3R)-4,4-difluoro-3-hydroxy-4-phenyl-1-buten-1-yl]-1-[6-(2H-tetrazol-5R-yl)hexyl]-2-pyrrolidinone]", "values": [{"measurement": "[Ca2+]i, pIC50, Control", "setting": "[1]; histamine 3 μM, agonist alone", "value": "9.52 ± 0.25 (3) /M"}, {"measurement": "cAMP, pEC50, Control", "setting": "AC activity [4]; HitHunter HS+ assay, 5 min", "value": "7.76 ± 0.11 (3) /M"}, {"measurement": "affinity for EP4 receptors relative to PGE2 (greater)", "setting": "EP4 receptor; ref Supporting Information Table S4", "value": "approximately twofold"}, {"measurement": "pKD, EP4 receptor", "setting": "EP4 receptor; reported affinity, ref Young et al., 2004", "value": 9.4}]}
{"smiles": "COc1ccc2c(c1)CC[C@@H]1[C@@H]2CC[C@]2(C)[C@@H](NCCCCCCN3C(=O)CCC3=O)CC[C@@H]12", "note": "[U73343, 1-[6-[[(17β)-3-methoxyestra-1,3,5(10)-trien-17-yl]amino]hexyl]-2,5-pyrrolidinedione]", "values": [{"measurement": "effect on Ca2+ signals evoked by histamine", "setting": "[1]; U73343 ≤10 μM, histamine 100 μM", "value": "no effect"}]}
{"smiles": "COc1ccc2c(c1)c(CC(=O)O)c(C)n2C(=O)c1ccc(Cl)cc1", "note": "[indomethacin, Indomethacin]", "values": [{"measurement": "effect on histamine-evoked Ca2+ signals", "setting": "[1]; indomethacin 10 μM, 5 min", "value": "nor indomethacin, an inhibitor of cyclooxygenases (Figure 1F), had any effect"}]}
{"smiles": "Cn1c(=O)c2c(ncn2C)n(C)c1=O", "note": "[caffeine]", "values": [{"measurement": "effect on [Ca2+]i", "setting": "human ASMC; caffeine 10 mM", "value": "no effect"}]}
{"smiles": "CCCC1([C@H](O)C/C=C/[C@H]2[C@H](O)CC(=O)[C@@H]2CCCCCCC(=O)OC)CCC1", "note": "[Butaprost]", "values": [{"measurement": "IC50", "setting": "[1]; [5]", "value": 0.00603, "unit": "µM"}, {"measurement": "difference between functional pIC50 and published binding affinity (pKD)", "setting": "[1]; pIC50 8.22 vs pKD 7.04", "value": "more than 10 fold"}, {"measurement": "EC50 for cAMP accumulation relative to PGE2 (higher)", "setting": "AC activity [4]; butaprost vs PGE2", "value": "~10", "unit": "fold"}, {"measurement": "affinity for human EP2 receptors relative to PGE2 (lower)", "setting": "EP2 receptor; ref Narumiya et al., 1999, Abramovitz et al.", "value": "~20", "unit": "fold"}, {"measurement": "pKD, EP2 receptor", "setting": "EP2 receptor", "value": 7.04}]}
